Results taken from patent US10874743B2, “IRAK degraders and uses thereof” (Kymera Therapeutics, Inc., priority 2017, dated 2020).

How the values were obtained:
[1] = target: CRBN-DDB1 / GST-IRAK4 ternary complex (Homo sapiens, UniProt Q96SW2+Q9NWZ3); experiment: AlphaLISA assay to determine ternary complex formation; assay type: binding
Method: The assay mixture contains 100 nM CRBN-DDB1, 100 nM GST-IRAK4, 20 μg/mL Nickle Chelate Donor Bead (Perkin Elmer Catalog # AS101D) and 20 μg/mL GSH Acceptor Bead (Perkin Elmer Catalog # AL109C) in a buffer containing 50 mM HEPES, pH 7.5, 100 mM NaCl, 0.1% BSA, 2 mM TCEP, 0.05% Tween-20. […] AlphaLISA signals (Excitation 680 nm and emission 615 nm) were recorded on a Perkin Elmer EnVision 2104 Multilabel reader. The raw data was converted to the relative amount of ternary complex formation by normalization to the signal generated by His-tagged GST protein only. The final data points were plotted and the curves were fit using non-linear regression using GraphPad Prism software.

IRAK4 = target: T1, IRAK4 (Homo sapiens, UniProt Q9NWZ3); experiment: PBMC degradation assay (western blot, % IRAK4 degraded after 4 hours); assay type: cell-based; conditions: human PBMCs
T1 sequence (Q9NWZ3 1-460): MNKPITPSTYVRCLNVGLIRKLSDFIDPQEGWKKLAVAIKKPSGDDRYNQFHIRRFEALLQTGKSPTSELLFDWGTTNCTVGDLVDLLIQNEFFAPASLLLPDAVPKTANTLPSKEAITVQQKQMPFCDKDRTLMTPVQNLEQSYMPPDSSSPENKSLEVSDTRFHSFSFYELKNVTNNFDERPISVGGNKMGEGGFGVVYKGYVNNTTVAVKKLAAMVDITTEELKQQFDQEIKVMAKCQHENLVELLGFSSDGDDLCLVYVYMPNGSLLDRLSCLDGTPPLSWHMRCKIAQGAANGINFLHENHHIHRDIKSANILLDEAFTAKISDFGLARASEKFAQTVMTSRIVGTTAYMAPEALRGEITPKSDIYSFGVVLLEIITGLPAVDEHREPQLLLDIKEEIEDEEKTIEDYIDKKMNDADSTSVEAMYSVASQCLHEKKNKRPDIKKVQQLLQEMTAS

CRBN-DDB1 / GST-IRAK4 ternary complex, sequence (Q96SW2 whole entry, one chain of several): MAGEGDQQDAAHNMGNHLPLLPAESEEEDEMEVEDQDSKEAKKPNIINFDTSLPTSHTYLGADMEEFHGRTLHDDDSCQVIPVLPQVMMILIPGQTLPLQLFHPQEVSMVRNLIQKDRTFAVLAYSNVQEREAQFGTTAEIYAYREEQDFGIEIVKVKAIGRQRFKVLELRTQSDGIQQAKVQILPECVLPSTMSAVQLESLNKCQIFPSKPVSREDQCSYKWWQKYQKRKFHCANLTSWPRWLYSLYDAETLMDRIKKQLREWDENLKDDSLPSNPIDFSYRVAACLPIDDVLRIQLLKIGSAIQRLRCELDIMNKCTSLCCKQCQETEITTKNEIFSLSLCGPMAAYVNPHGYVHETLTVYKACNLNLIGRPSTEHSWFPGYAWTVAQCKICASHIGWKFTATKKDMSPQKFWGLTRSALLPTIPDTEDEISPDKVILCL
CRBN-DDB1 / GST-IRAK4 ternary complex, sequence (Q16531 whole entry partner, one chain of several): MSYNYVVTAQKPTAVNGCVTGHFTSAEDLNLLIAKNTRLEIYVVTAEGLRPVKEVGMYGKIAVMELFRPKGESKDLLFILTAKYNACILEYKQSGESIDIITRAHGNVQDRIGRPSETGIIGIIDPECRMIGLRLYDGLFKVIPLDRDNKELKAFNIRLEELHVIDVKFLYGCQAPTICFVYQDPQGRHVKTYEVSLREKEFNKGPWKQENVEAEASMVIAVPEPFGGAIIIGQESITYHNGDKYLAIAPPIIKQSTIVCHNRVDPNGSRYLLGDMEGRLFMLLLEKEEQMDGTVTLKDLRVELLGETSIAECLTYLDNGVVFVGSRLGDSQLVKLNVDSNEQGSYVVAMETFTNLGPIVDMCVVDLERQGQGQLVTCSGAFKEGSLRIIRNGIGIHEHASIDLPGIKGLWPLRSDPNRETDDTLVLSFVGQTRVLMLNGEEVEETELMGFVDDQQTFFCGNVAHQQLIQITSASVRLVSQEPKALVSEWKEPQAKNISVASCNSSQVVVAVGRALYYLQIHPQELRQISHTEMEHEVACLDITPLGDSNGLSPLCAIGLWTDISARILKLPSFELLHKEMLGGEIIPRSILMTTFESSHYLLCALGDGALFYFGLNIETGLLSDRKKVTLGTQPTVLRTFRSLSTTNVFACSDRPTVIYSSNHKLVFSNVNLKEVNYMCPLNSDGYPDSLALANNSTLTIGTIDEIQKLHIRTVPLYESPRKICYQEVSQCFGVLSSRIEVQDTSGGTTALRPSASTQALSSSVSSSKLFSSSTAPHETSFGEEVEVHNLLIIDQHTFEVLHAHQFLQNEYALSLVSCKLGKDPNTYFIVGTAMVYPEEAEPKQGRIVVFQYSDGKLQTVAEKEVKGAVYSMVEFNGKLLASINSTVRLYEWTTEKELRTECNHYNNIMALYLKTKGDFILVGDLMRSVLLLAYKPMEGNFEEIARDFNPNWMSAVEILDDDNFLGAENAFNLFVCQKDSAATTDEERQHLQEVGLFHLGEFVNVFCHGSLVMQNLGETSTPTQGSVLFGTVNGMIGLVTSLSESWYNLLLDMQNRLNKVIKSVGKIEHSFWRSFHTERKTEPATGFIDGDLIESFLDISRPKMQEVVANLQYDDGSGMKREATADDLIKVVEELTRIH

Average % Ternary Complex (N = 2) ([1]; compound concentration 1.00E−07 M) [%] | Average % Ternary Complex (N = 2) ([1]; compound concentration 1.25E−08 M) [%] | Average % Ternary Complex (N = 2) ([1]; compound concentration 1.28E−05 M) [%] | Average % Ternary Complex (N = 2) ([1]; compound concentration 1.60E−06 M) [%] | Average % Ternary Complex (N = 2) ([1]; compound concentration 2.00E−07 M) [%] | Average % Ternary Complex (N = 2) ([1]; compound concentration 2.50E−08 M) [%] | Average % Ternary Complex (N = 2) ([1]; compound concentration 3.20E−06 M) [%] | Average % Ternary Complex (N = 2) ([1]; compound concentration 4.00E−07 M) [%] | Average % Ternary Complex (N = 2) ([1]; compound concentration 5.00E−08 M) [%] | Average % Ternary Complex (N = 2) ([1]; compound concentration 6.25E−09 M) [%] | Average % Ternary Complex (N = 2) ([1]; compound concentration 6.40E−06 M) [%] | Average % Ternary Complex (N = 2) ([1]; compound concentration 8.00E−07 M) [%] | PBMC % IRAK4 Degradation (IRAK4) | SMILES
31.29 | 5.89 | 1.58 | 12.53 | 28.96 | 12.66 | 6.74 | 25.83 | 23.14 | 2.71 | 3.36 | 17.79 | A (>50% degradation) | NC(=O)c1nn(-c2ccc(C(=O)NCCOCCOCCNc3cccc4c3C(=O)N(C3CCC(=O)NC3=O)C4=O)cc2)cc1NC(=O)c1coc(-c2ccnc(NCC(F)(F)F)c2)n1 (centres unmarked) [I-127, N-[3-carbamoyl-1-[4-[2-[2-[2-[[2-(2,6-dioxo-3-piperidyl)-1,3-dioxo-isoindolin-4-yl]amino]ethoxy]ethoxy]ethylcarbamoyl]phenyl]pyrazol-4-yl]-2-[2-(2,2,2-trifluoroethylamino)-4-pyridyl]oxazole-4-carboxamide]
 |  |  |  |  |  |  |  |  |  |  |  | A (>50% degradation) | NC(=O)c1nn(-c2ccc(C(=O)NCCCCCNCCNc3cccc4c3C(=O)N(C3CCC(=O)NC3=O)C4=O)cc2)cc1NC(=O)c1coc(-c2ccnc(NCC(F)(F)F)c2)n1 (centres unmarked) [I-172, N-[3-carbamoyl-1-[4-[5-[2-[[2-(2,6-dioxo-3-piperidyl)-1,3-dioxo-isoindolin-4-yl]amino]ethylamino]pentylcarbamoyl]phenyl]pyrazol-4-yl]-2-[2-(2,2,2-trifluoroethylamino)-4-pyridyl]oxazole-4-carboxamide]
